Measured values: PubChem BioAssay (NCI)
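In this assay, cells in 96-well plates receive the compound at five concentrations for 48 hours. Endpoints are linearly interpolated between the surrounding concentrations. At the TGI there is no net growth.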

Experiments:
Assay in all cases: growth of human tumour cells (NCI), 48 h
[1] = test system: SR leukemia
[2] = test system: NCI-H522 lung
[3] = test system: SW-620 colon
[4] = test system: NCI-H226 lung
[5] = test system: NCI-H460 lung
[6] = test system: SNB-19 CNS
[7] = test system: SF-539 CNS
[8] = test system: RPMI-8226 leukemia
[9] = test system: KM12 colon
[10] = test system: UO-31 renal

| SMILES | TGI [1] | TGI [2] | TGI [3] | TGI [4] | TGI [5] | TGI [6] | TGI [7] | TGI [8] | TGI [9] | TGI [10] |
| --- | --- | --- | --- | --- | --- | --- | --- | --- | --- | --- |
| COc1ccc(C(SC2C(O)C(CO)OC2n2ccc(N)nc2=O)(c2ccccc2)c2ccc(OC)cc2)cc1 (configuration not stated) | 58 µM | 31.2 µM | > 100 µM | 28.3 µM | 27.2 µM | 64.4 µM | 36.3 µM | 59.3 µM | 71.2 µM | 42.8 µM |
| CC(C)C(OC(=O)c1ccc(NCc2cc(O)ccc2O)cc1)C(C)C | 2.43 µM | 0.391 µM | 7.95 µM | 5.47 µM | 14.7 µM | 7.06 µM | 2.47 µM | 0.931 µM | 11.1 µM | 2.42 µM |
| CCCC(=O)NC(Nc1ccc(S(=O)(=O)Nc2nc(C)cc(C)n2)cc1)(C(F)(F)F)C(F)(F)F | > 100 µM | > 100 µM | > 100 µM | > 100 µM | > 100 µM | > 100 µM | > 100 µM | > 100 µM | > 100 µM | > 100 µM |
| CCOC(=O)c1cc2c3c(c(C(C)=O)c(O)c2[nH]1)N(CC(C)CC)CC3 (configuration not stated) | > 100 µM | > 100 µM | > 100 µM | > 100 µM | > 100 µM | > 100 µM | > 100 µM | > 100 µM | > 100 µM | > 100 µM |
| COc1cc(C2c3cc4c(cc3OC(NNC(N)=O)C2C)OCO4)cc(OC)c1O (configuration not stated) | > 100 µM | 10.5 µM | > 100 µM | 27.1 µM | > 100 µM | > 100 µM | 4.71 µM | > 31.8 µM | > 69.9 µM | > 100 µM |
| c1ccc2c(c1)CCc1c-2n(CCN2CCOCC2)c2ccccc12 | 38.3 µM | 28.6 µM | > 100 µM | > 100 µM | 92.9 µM | > 100 µM | > 100 µM | > 100 µM | 27.3 µM | > 100 µM |
| COc1ccc2nc3cc([N+](=O)[O-])ccc3c(Nc3ccc(S(=O)(=O)NC(C)=O)cc3)c2c1 | 75.8 µM | > 100 µM | > 100 µM | > 100 µM | > 100 µM | > 100 µM | > 100 µM | > 100 µM | – | > 100 µM |
| C[C@H]1C[C@H]2[C@@H]3C(C)(C)O[C@]4(O)C(=O)[C@]5(O)[C@@H](C)CC[C@H]1[C@]25C(=O)[C@]34C | 96.6 µM | 48 µM | > 100 µM | 98.2 µM | > 100 µM | > 100 µM | > 100 µM | 45.8 µM | 99.7 µM | > 100 µM |
| CSc1n[nH]c(N)c1C(=O)Nc1ccc(C)cc1 | > 100 µM | > 100 µM | > 100 µM | > 100 µM | > 100 µM | > 100 µM | > 100 µM | > 100 µM | – | > 100 µM |
| C=C(C)C(O)C(O)c1c(OC)ccc2ccc(=O)oc12 (configuration not stated) | > 100 µM | > 100 µM | > 100 µM | > 100 µM | > 100 µM | > 100 µM | > 100 µM | > 100 µM | > 100 µM | > 100 µM |
| OC(CCNCc1ccccc1)c1ccc2ccccc2c1 (configuration not stated) | 98.3 µM | 35 µM | 43.1 µM | 46.7 µM | 35.1 µM | 47.9 µM | 31.9 µM | 73.3 µM | 31.7 µM | 32.3 µM |
| COc1cc2cc[n+]3c(C)c4cc(OC)c(OC)cc4c([O-])c3c2cc1OC | > 100 µM | 42 µM | > 100 µM | > 100 µM | > 100 µM | > 100 µM | > 100 µM | > 100 µM | > 100 µM | > 100 µM |
| O=c1oc2ccccc2cc1-c1cn2cc(Cl)ccc2n1 | > 39.2 µM | 0.722 µM | 31.7 µM | > 57.3 µM | 13.6 µM | 3.66 µM | 22.2 µM | 59.7 µM | 12.1 µM | 6.79 µM |
| COc1c(O)cc(O)c2c(=O)cc(-c3ccccc3)oc12 | > 100 µM | > 100 µM | > 100 µM | > 100 µM | > 100 µM | > 100 µM | > 100 µM | 37.1 µM | > 100 µM | 6.04 µM |
| C/C(Nc1ccc(F)cc1)=C1/CCOC1=O | > 100 µM | > 100 µM | > 100 µM | > 100 µM | > 100 µM | > 100 µM | > 100 µM | > 100 µM | > 100 µM | > 100 µM |
| O=C(O)c1ccn(-c2cccc(-n3ccc(C(=O)O)n3)n2)n1 | > 100 µM | > 100 µM | > 100 µM | > 100 µM | > 100 µM | > 100 µM | > 100 µM | > 100 µM | > 100 µM | > 100 µM |
| O=C1C(=O)c2ccccc2C(O)=C1CCCc1ccc(Oc2ccccc2)cc1 | > 100 µM | 34.2 µM | > 100 µM | 47.9 µM | 41.9 µM | > 100 µM | 28 µM | > 100 µM | > 100 µM | 32.6 µM |
| COc1cc(/C=C2\Sc3scc(-c4cccc([N+](=O)[O-])c4)[n+]3C2=O)cc(OC)c1OC | 5.11 µM | 27.3 µM | 23 µM | 34.3 µM | 24.2 µM | 46.5 µM | 24.2 µM | 22.7 µM | 41.6 µM | 19 µM |
| CCCCCCCCCCCCCCCCCCNc1ccn(C2OC(COP(=O)(O)OCC3OC(n4cc(F)c(NCCCCCCCCCCCCCCCCCC)nc4=O)CC3O)C(O)C2O)c(=O)n1 (configuration not stated) | > 100 µM | > 100 µM | > 100 µM | > 100 µM | > 100 µM | > 100 µM | > 100 µM | > 100 µM | > 100 µM | > 100 µM |
| COC(=O)c1c(OC(C)=O)ccc2c1c1c(n2C)C(=O)c2ccccc2C1=O | > 100 µM | 67.6 µM | – | > 100 µM | > 100 µM | > 100 µM | 47 µM | 28 µM | 86.4 µM | > 100 µM |
| O=C(Nc1nc2ccccc2s1)c1cc([N+](=O)[O-])ccc1Cl | > 100 µM | 11.6 µM | > 51.4 µM | > 100 µM | > 59.4 µM | > 100 µM | 28.5 µM | > 100 µM | > 48.1 µM | > 100 µM |
